Measured values as given in ChEMBL document CHEMBL5344416, “Phenothiazines as anti-cancer agents: SAR overview and synthetic strategies” (Eur J Med Chem, 2023).

Experiments:
[1] = test system: SNB-19; experiment: Antiproliferative activity against human SNB-19 cells assessed as reduction in cell proliferation incubated for 72 hrs by WST-1 assay; format: functional, cell-based; details: SNB-19, 72 h
[2] = test system: TC-32; experiment: Antiproliferative activity against human TC-32 cells assessed as reduction in cell proliferation incubated for 72 hrs by WST-1 assay; format: functional, cell-based; details: TC-32, 72 h
[3] = test system: MDA-MB-231; experiment: Antiproliferative activity against human MDA-MB-231 cells assessed as reduction in cell proliferation incubated for 72 hrs by WST-1 assay; format: functional, cell-based; details: MDA-MB-231, 72 h
[4] = test system: MCF7; experiment: Antitumor activity against human MCF7 cells assessed as inhibition of cell growth at 1000 ug measured after 48 hrs by spectrophotometric analysis relative to control; format: functional; design: scale not given: the % may be the effect or the level left; details: dose 1000 µg
[5] = test system: MCF7; experiment: Antitumor activity against human MCF7 cells assessed as increase in LDH level at 1000 ug relative to control; format: functional; details: dose 1000 µg
[6] = test system: MCF7; experiment: Anticancer activity against human MCF7 cells assessed as cell growth inhibition incubated for 48 hrs by MTT assay; format: functional, cell-based; details: MCF7, 48 h
[7] = test system: SNB-19; experiment: Anticancer activity against human SNB-19 cells assessed as reduction in cell growth by SRB assay; format: functional, cell-based
[8] = test system: TC-32; experiment: Cytotoxicity against human TC-32 cells assessed as reduction in cell viability; format: functional, cell-based
[9] = test system: MCF7; experiment: Cytotoxicity against human MCF7 cells assessed as reduction in cell growth; format: functional, cell-based
[10] = Cytotoxicity against human HFF-1 cells assessed as reduction of cell viability incubated for 72 hrs by CCK-8 assay; format: toxicity, cell-based
[11] = test system: THP-1; experiment: Antiproliferative activity against human THP-1 cells assessed as cell growth inhibition measured after 24 hrs by MTT assay; format: functional, cell-based; details: THP-1, 24 h
[12] = test system: HL-60; experiment: Antiproliferative activity against human HL-60 cells assessed as cell growth inhibition measured after 24 hrs by MTT assay; format: functional, cell-based; details: HL-60, 24 h
[13] = Antiproliferative activity against human PBMC cells assessed as reduction in cell viability measured after 24 hrs by MTT assay; format: functional, cell-based
[14] = test system: SNB-19; experiment: Anticancer activity against human SNB-19 cells assessed as reduction in cell growth incubated for 48 hrs by SRB assay; format: functional, cell-based; details: SNB-19, 48 h
[15] = test system: TC-32; experiment: Anticancer activity against human TC-32 cells assessed as reduction in cell growth incubated for 48 hrs by SRB assay; format: functional, cell-based; details: TC-32, 48 h
[16] = test system: MDA-MB-231; experiment: Anticancer activity against human MDA-MB-231 cells assessed as reduction in cell viability measured after 72 hrs by MTT assay; format: functional, cell-based; details: MDA-MB-231, 72 h
[17] = test system: MCF7; experiment: Antiproliferative activity against human MCF7 cells assessed as cell growth inhibition by MTT assay; format: functional, cell-based
[18] = test system: MCF7; experiment: Cytotoxicity against human MCF7 cells assessed as reduction in cell growth incubated for 96 hrs by MTT assay; format: functional, cell-based; details: MCF7, 96 h
[19] = test system: MDA-MB-231; experiment: Cytotoxicity against human MDA-MB-231 cells assessed as reduction in cell viability incubated for 24 hrs by MTT assay; format: functional, cell-based; details: MDA-MB-231, 24 h
[20] = test system: MDA-MB-468; experiment: Cytotoxicity against human MDA-MB-468 cells assessed as cell viability measured after 3 days by Cell Titer Blue assay; format: functional, cell-based; details: MDA-MB-468, 72 h
[21] = test system: SK-BR-3; experiment: Cytotoxicity against human SK-BR-3 cells assessed as cell growth inhibition incubated for 48 hrs by WST-1 assay; format: functional, cell-based; details: SK-BR-3, 48 h
[22] = test system: T47D; experiment: Cytotoxicity against human T47D cells assessed as reduction in cell viability after 48 hrs by MTT assay; format: functional, cell-based
[23] = Cytotoxicity in human MCF-10A cells assessed as reduction in cell viability incubated for 72 hrs by MTT assay; format: toxicity, cell-based
[24] = test system: LoVo; experiment: Antiproliferative activity against human LoVo cells assessed as reduction in cell viability incubated for 48 hrs by MTT assay; format: functional, cell-based
[25] = test system: LoVo; experiment: Cytotoxicity against human LoVo cells assessed as reduction in cell viability incubated for 72 hrs by MTT assay; format: functional
[26] = Antiproliferative activity against human Lovo/DX cells assessed as reduction in cell viability; format: functional, cell-based
[27] = Cytotoxicity against human Lovo/DX cells assessed as reduction in cell viability incubated for 72 hrs by MTT assay; format: functional
[28] = test system: MCF7; experiment: Anticancer activity against human MCF7 cells assessed as inhibition of cell growth incubated for 48 hrs by MTT assay; format: functional, cell-based; details: MCF7, 48 h
[29] = test system: CT26; experiment: Antitumor activity against mouse CT26 cells assessed as reduction in cell viability incubated for 4 hrs by MTT assay; format: functional, cell-based; details: CT26, 4 h
[30] = test system: CT26; experiment: Antitumor activity against mouse CT26 cells assessed as tumor growth inhibition incubated for 4 hrs by MTT assay relative to control; format: functional; design: scale not given: the % may be the effect or the level left
[31] = test system: U-87 MG; experiment: Antiproliferative activity against human U87 cells assessed as reduction in cell viability incubated for 48 hrs by MTT assay; format: functional, cell-based, U-87MG ATCC
[32] = test system: U-251; experiment: Antiproliferative activity against human U-251 cells assessed as reduction in cell viability incubated for 48 hrs by MTT assay; format: functional, cell-based; details: U-251, 48 h
[33] = test system: MCF7; experiment: Cytotoxicity against human MCF7 cells assessed as reduction in cell viability by MTT assay; format: functional, cell-based
[34] = Antioxidant activity assessed as DPPH radical scavenging activity; format: functional
[35] = Antioxidant activity assessed as ABTS radical scavenging activity; format: functional
[36] = test system: CWR22R; experiment: Antiproliferative activity against human 22Rv1 cells assessed as cell viability incubated for 96 hrs by Cell-Titer Glo assay; format: functional, cell-based; details: 22Rv1, 96 h
[37] = test system: RAW264.7; experiment: Cytotoxicity against mouse RAW264.7 cells assessed as reduction in cell viability incubated for 72 hrs; format: functional, cell-based; details: RAW264.7, 72 h

In the case of `CCN(CC)CCN1c2ncccc2Sc2cccnc21`, the IC50 [1] is reported as 330 nM, the IC50 [2] is reported as 14.4 µM and the IC50 [3] is reported as 2130 nM.

With `CN1c2ccccc2Sc2cc(/C=N/NC(=O)Cn3c4ccccc4c4ccccc43)ccc21` the Activity [4] was 48% and the Activity [5] was 48%.

Work on `c1cnc2c(c1)Nc1ccncc1S2` yielded an IC50 [6] of 8.3 µM, an IC50 [7] of 580 nM and an IC50 [8] of 720 nM. The IC50 [9] was 460 nM and the IC50 at 72 h [10] was 38.6 µM.

For `CCCCCCCCCCc1nc2cc3c(cc2s1)N(C)c1ccccc1S3`, the IC50 [11] was 21.6 µM, the IC50 [12] was 67.3 µM and the IC50 [13] was > 2 mM.

In the case of `CSc1ccc2c(c1)N(CCCn1ccc(=O)[nH]c1=O)c1ccccc1S2`, the IC50 [6] is reported as 1.35 µM.

`CCN(CC)CC#CCN1c2ccncc2Sc2ncccc21` showed an IC50 [14] of 110 nM, an IC50 [15] of 540 nM and an IC50 [16] of 6.32 µM.

With `CN(C)CCN1CCN(CCCN2c3ccccc3Sc3ccc(C(F)(F)F)cc32)CC1` the IC50 [17] was 420 nM.

For `CCN1c2ccc(-c3ccccc3)cc2Sc2cc(-c3nnc4ccccn34)ccc21`, the IC50 [18] was 6.2 µM, the IC50 [19] was 19.4 µM and the IC50 [20] was 9.7 µM. The IC50 [21] was 31.5 µM, the IC50 [22] was 11.7 µM and the IC50 at 72 h [23] was 13.4 µM.

Work on `CN(CCO)CC(O)CN1c2ccccc2Sc2ccc(C(F)(F)F)cc21` (centres undefined) yielded an IC50 [24] of 50 µM, an IC20 [25] of 12 µM and an IC50 [26] of 42 µM. The IC20 [27] was 8 µM.

With `COCCSc1nnc(CN2c3ccccc3Sc3ccc(Cl)cc32)s1` the IC50 [28] was 3.45 µM.

`CN1c2ccccc2Sc2cc(/C=C/C(=O)c3ccccc3)ccc21` gave an Activity [4] of 21% and an Activity [5] of 64%.

With `COCCOCCOCCOCCOCCOCCOCCOCCOCCOCCOCCOCCN1c2ccccc2Sc2ccccc21` the IC50 [29] was 344 µM and the Activity [30] was 92%.

In the case of `O=[N+]([O-])c1ccccc1S(=O)(=O)N1c2ccccc2Sc2ccc(Cl)cc21`, the IC50 [31] is reported as 5.12 µM and the IC50 [32] is reported as 9.29 µM.

With `C/C(=N\c1ccc(/N=N/c2ccccc2)cc1)c1ccc2c(c1)Nc1ccccc1S2` the IC50 [33] was 34.6 µM, the IC50 [34] was 37.3 µM and the IC50 [35] was 41.1 µM.

`OCCN1CCN(CCCN2c3ccccc3Sc3ccc(C(F)(F)F)cc32)CC1` [FLUPHENAZINE] gave an IC50 [24] of 80 µM, an IC20 [25] of 22 µM and an IC50 [26] of 80 µM. The IC20 [27] was 22 µM.

`O=C(Nc1ccc(OCCCN2CCNCC2)cc1)N1c2ccccc2Sc2ccccc21` showed an IC50 [36] of 13.5 µM and an IC50 [37] of 60.1 µM.
